The record followed here is patent US12624018B1, “Inhibitors of RIPK2 and medical uses thereof” (Odyssey Therapeutics, Inc., priority 2022, dated 2026).

This test concerns the target T1, RIPK2 enzyme (Homo sapiens, UniProt O43353).
T1 construct: purchased Carna 09-128
As to the kind of experiment: RIPK2 inhibition (ADP-Glo Kinase Assay). In kind it is biochemical. To be noted: RIPK2 5 nM, ATP 150 μM, MBP substrate, read-out: RIPK2 IC50. A digest of the protocol: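 Human RIPK2 (5 nM) preincubated with compound 30 min at room temperature in 50 mM HEPES pH 7.5, 10 mM MgCl2, 2 mM DTT, 1 mM EGTA, 0.01% Brij-35, 0.05% BSA; native swine MBP as substrate. ADP formed quantified by ADP-Glo luminescence; percent inhibition relative to DMSO and no-enzyme controls.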
On the technique in general: ADP-Glo turns the ADP formed in a reaction into a luminescent signal.

T1 sequence (O43353 1-299 limits assumed): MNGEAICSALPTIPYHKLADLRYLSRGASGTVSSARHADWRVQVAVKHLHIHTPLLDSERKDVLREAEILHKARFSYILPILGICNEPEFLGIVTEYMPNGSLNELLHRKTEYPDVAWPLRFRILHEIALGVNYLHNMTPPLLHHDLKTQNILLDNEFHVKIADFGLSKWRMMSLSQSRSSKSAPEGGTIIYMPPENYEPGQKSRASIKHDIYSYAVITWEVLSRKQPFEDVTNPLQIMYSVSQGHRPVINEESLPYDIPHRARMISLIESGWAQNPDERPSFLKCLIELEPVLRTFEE

Turning to `Cc1c(Oc2ccnc3ccc(C(C)(C)O)cc23)ccc(CC(=O)Nc2cnn(C(C)(C)C)c2)c1F` [Compound 302, N-(1-(tert-butyl)-1H-pyrazol-4-yl)-2-(2-fluoro-4-((6-(2-hydroxypropan-2-yl)quinolin-4-yl)oxy)-3-methylphenyl)acetamide], the IC50 was < 2.5 nM.
`COC(C)(C)c1ccc2nccc(Oc3ccc(CC(=O)Nc4cnn(C(C)(C)C)c4)c(F)c3C)c2c1` [Compound 303, N-(1-(tert-butyl)-1H-pyrazol-4-yl)-2-(2-fluoro-4-((6-(2-methoxypropan-2-yl)quinolin-4-yl)oxy)-3-methylphenyl)acetamide]: the IC50 is < 2.5 nM.
To `Cc1cc(CC(=O)Nc2cnn(C(C)(C)C)c2)ccc1Oc1ccnc2ccc(OC3CCC(=O)NC3)cc12` (stereo not shown) [Compound 307, N-(1-(tert-butyl)-1H-pyrazol-4-yl)-2-(3-methyl-4-((6-((6-oxopiperidin-3-yl)oxy)quinolin-4-yl)oxy)phenyl) acetamide] belongs < 2.5 nM; to `Cc1cc(CC(=O)Nc2cnn(C(C)(C)C)c2)ccc1Oc1ccnc2ccc(OC3CCCNC3=O)cc12` (stereo not shown) [Compound 308, N-(1-(tert-butyl)-1H-pyrazol-4-yl)-2-(3-methyl-4-((6-((2-oxopiperidin-3-yl)oxy)quinolin-4-yl)oxy)phenyl) acetamide], < 2.5 nM.
In the case of `Cc1cc(CC(=O)Nc2cnn(C(C)(C)C)c2)ccc1Oc1ccnc2ccc(S(=O)(=O)CC(C)(C)O)cc12` [Compound 309, N-(1-(tert-butyl)-1H-pyrazol-4-yl)-2-(4-((6-((2-hydroxy-2-methylpropyl)sulfonyl)quinolin-4-yl)oxy)-3-methylphenyl)acetamide], the IC50 was < 2.5 nM.
To `Cc1cc(CC(=O)Nc2cnn(C(C)(C)C)c2)ccc1Oc1ccnc2ccc(S(=O)(=O)C(C)(C)CO)cc12` [Compound 310, N-(1-(tert-butyl)-1H-pyrazol-4-yl)-2-(4-((6-((1-hydroxy-2-methylpropan-2-yl)sulfonyl)quinolin-4-yl)oxy)-3-methylphenyl)acetamide] belongs < 2.5 nM; to `Cc1cc(CC(=O)Nc2cnn(C(C)(C)C)c2)ccc1Oc1ccnc2ccc(S(=O)(=O)C3CCNCC3)cc12` [Compound 311, N-(1-(tert-butyl)-1H-pyrazol-4-yl)-2-(3-methyl-4-((6-(piperidin-4-ylsulfonyl)quinolin-4-yl)oxy)phenyl)acetamide], < 2.5 nM; to `Cc1c(Oc2ccnc3ccc(S(=O)(=O)C4CCNCC4)cc23)ccc(CC(=O)Nc2cnn(C(C)(C)C)c2)c1F` [Compound 312, N-(1-(tert-butyl)-1H-pyrazol-4-yl)-2-(2-fluoro-3-methyl-4-((6-(piperidin-4-ylsulfonyl)quinolin-4-yl)oxy)phenyl)acetamide], < 2.5 nM.
Then `Cc1cc(CC(=O)Nc2cnn(C(C)(C)C)c2)c(F)cc1Oc1ccnc2ccc(S(=O)(=O)C3CCNCC3)cc12` [Compound 313, N-(1-(tert-butyl)-1H-pyrazol-4-yl)-2-(2-fluoro-5-methyl-4-((6-(piperidin-4-ylsulfonyl)quinolin-4-yl)oxy)phenyl)acetamide], with < 2.5 nM.
Regarding `Cc1cc(CC(=O)Nc2cnn(C(C)(C)C)c2)ccc1Oc1ccnc2ccc(S(=O)(=O)C3CNC3)cc12` [Compound 314, 2-(4-((6-(azetidin-3-ylsulfonyl)quinolin-4-yl)oxy)-3-methylphenyl)-N-(1-(tert-butyl)-1H-pyrazol-4-yl)acetamide], the IC50 was < 2.5 nM.
In the case of `Cc1c(Oc2ccnc3ccc(S(=O)(=O)C4CNC4)cc23)ccc(CC(=O)Nc2cnn(C(C)(C)C)c2)c1F` [Compound 315, 2-(4-((6-(azetidin-3-ylsulfonyl)quinolin-4-yl)oxy)-2-fluoro-3-methylphenyl)-N-(1-(tert-butyl)-1H-pyrazol-4-yl)acetamide], the IC50 is < 2.5 nM.
In the case of `Cc1cc(CC(=O)Nc2cnn(C(C)(C)C)c2)c(F)cc1Oc1ccnc2ccc(S(=O)(=O)C3CNC3)cc12` [Compound 316, 2-(4-((6-(azetidin-3-ylsulfonyl)quinolin-4-yl)oxy)-2-fluoro-5-methylphenyl)-N-(1-(tert-butyl)-1H-pyrazol-4-yl)acetamide], the IC50 is < 2.5 nM.
In the case of `Cc1cc(CC(=O)Nc2cnn(C(C)(C)C)c2)ccc1Oc1ccnc2ccc(N3CCC(F)(F)C3=O)cc12` [Compound 325, N-(1-(tert-butyl)-1H-pyrazol-4-yl)-2-(4-((6-(3,3-difluoro-2-oxopyrrolidin-1-yl)quinolin-4-yl)oxy)-3-methylphenyl) acetamide], the IC50 was < 2.5 nM.
To `Cc1cc(CC(=O)Nc2cc(C(C)(C)CO)n[nH]2)ccc1Oc1ccnc2ccc(S(C)(=O)=O)cc12` [Compound 328, N-(5-(1-hydroxy-2-methylpropan-2-yl)-1H-pyrazol-3-yl)-2-(3-methyl-4-((6-(methylsulfonyl)quinolin-4-yl)oxy)phenyl)acetamide] belongs < 2.5 nM; to `Cc1c(Oc2ccnc3ccc(S(C)(=O)=O)cc23)ccc(CC(=O)Nc2cc(C(C)(C)CO)n[nH]2)c1F` [Compound 329, 2-(2-fluoro-3-methyl-4-((6-(methylsulfonyl)quinolin-4-yl)oxy)phenyl)-N-(5-(1-hydroxy-2-methylpropan-2-yl)-1H-pyrazol-3-yl)acetamide], < 2.5 nM; to `COC(C)(C)c1cc(NC(=O)Cc2ccc(Oc3ccnc4ccc(S(C)(=O)=O)cc34)c(C)c2)[nH]n1` [Compound 330, N-(5-(2-methoxypropan-2-yl)-1H-pyrazol-3-yl)-2-(3-methyl-4-((6-(methylsulfonyl)quinolin-4-yl)oxy)phenyl)acetamide], < 2.5 nM.
Then `COC(C)(C)c1cc(NC(=O)Cc2ccc(Oc3ccnc4ccc(S(C)(=O)=O)cc34)c(C)c2F)[nH]n1` [Compound 331, 2-(2-fluoro-3-methyl-4-((6-(methylsulfonyl)quinolin-4-yl)oxy)phenyl)-N-(5-(2-methoxypropan-2-yl)-1H-pyrazol-3-yl)acetamide], with < 2.5 nM.
As to `Cc1cc(CC(=O)Nc2cnn(C(C)(C)C)c2)ccc1Oc1ccnc2ccc(S(=O)(=O)CC3CNC3)cc12` [Compound 332, 2-(4-((6-((azetidin-3-ylmethyl)sulfonyl)quinolin-4-yl)oxy)-3-methylphenyl)-N-(1-(tert-butyl)-1H-pyrazol-4-yl)acetamide], the IC50 was < 2.5 nM.
To `Cc1c(Oc2ccnc3ccc(C(=O)O)cc23)ccc(CC(=O)Nc2cnn(C(C)(C)C)c2)c1F` [Compound 333, 4-(4-(2-((1-(tert-butyl)-1H-pyrazol-4-yl)amino)-2-oxoethyl)-3-fluoro-2-methyl-phenoxy) quinoline-6-carboxylic acid] belongs < 2.5 nM; to `Cc1c(Oc2ccnc3ccc(C(N)=O)cc23)ccc(CC(=O)Nc2cnn(C(C)(C)C)c2)c1F` [Compound 334, 4-(4-(2-((1-(tert-butyl)-1H-pyrazol-4-yl)amino)-2-oxoethyl)-3-fluoro-2-methyl-phenoxy) quinoline-6-carboxamide], < 2.5 nM.
Then `CNC(=O)c1ccc2nccc(Oc3ccc(CC(=O)Nc4cnn(C(C)(C)C)c4)c(F)c3C)c2c1` [Compound 335, 4-(4-(2-((1-(tert-butyl)-1H-pyrazol-4-yl)amino)-2-oxoethyl)-3-fluoro-2-methyl-phenoxy)-N-methyl-quinoline-6-carboxamide], with < 2.5 nM; and `Cc1c(Oc2ccnc3ccc(C(=O)N(C)C)cc23)ccc(CC(=O)Nc2cnn(C(C)(C)C)c2)c1F` [Compound 336, 4-(4-(2-((1-(tert-butyl)-1H-pyrazol-4-yl)amino)-2-oxoethyl)-3-fluoro-2-methyl-phenoxy)-N,N-dimethyl-quinoline-6-carboxamide], with < 2.5 nM.
As to `Cc1c(Oc2ccnc3ccc(C(=O)NCC(F)(F)F)cc23)ccc(CC(=O)Nc2cnn(C(C)(C)C)c2)c1F` [Compound 337, 4-(4-(2-((1-(tert-butyl)-1H-pyrazol-4-yl)amino)-2-oxoethyl)-3-fluoro-2-methyl-phenoxy)-N-(2,2,2-trifluoroethyl) quinoline-6-carboxamide], the IC50 was < 2.5 nM.
Then `CCNC(=O)c1ccc2nccc(Oc3ccc(CC(=O)Nc4cnn(C(C)(C)C)c4)c(F)c3C)c2c1` [Compound 338, 4-(4-(2-((1-(tert-butyl)-1H-pyrazol-4-yl)amino)-2-oxoethyl)-3-fluoro-2-methyl-phenoxy)-N-ethylquinoline-6-carboxamide], with < 2.5 nM; and `Cc1c(Oc2ccnc3ccc(C(=O)NCCO)cc23)ccc(CC(=O)Nc2cnn(C(C)(C)C)c2)c1F` [Compound 339, 4-(4-(2-((1-(tert-butyl)-1H-pyrazol-4-yl)amino)-2-oxoethyl)-3-fluoro-2-methyl-phenoxy)-N-(2-hydroxyethyl) quinoline-6-carboxamide], with < 2.5 nM.
Regarding `Cc1c(Oc2ccnc3ccc(C(=O)N(C)CCO)cc23)ccc(CC(=O)Nc2cnn(C(C)(C)C)c2)c1F` [Compound 340, 4-(4-(2-((1-(tert-butyl)-1H-pyrazol-4-yl)amino)-2-oxoethyl)-3-fluoro-2-methyl-phenoxy)-N-(2-hydroxyethyl)-N-methyl-quinoline-6-carboxamide], the IC50 is < 2.5 nM.
To `Cc1c(Oc2ccnc3ccc(C(=O)N(CCO)CCO)cc23)ccc(CC(=O)Nc2cnn(C(C)(C)C)c2)c1F` [Compound 341, 4-(4-(2-((1-(tert-butyl)-1H-pyrazol-4-yl)amino)-2-oxoethyl)-3-fluoro-2-methyl-phenoxy)-N,N-bis(2-hydroxyethyl) quinoline-6-carboxamide] belongs < 2.5 nM.
To `COCCNC(=O)c1ccc2nccc(Oc3ccc(CC(=O)Nc4cnn(C(C)(C)C)c4)c(F)c3C)c2c1` [Compound 342, 4-(4-(2-((1-(tert-butyl)-1H-pyrazol-4-yl)amino)-2-oxoethyl)-3-fluoro-2-methyl-phenoxy)-N-(2-methoxyethyl) quinoline-6-carboxamide] belongs < 2.5 nM.

As usually defined, the IC50 is the concentration at which inhibition is half-maximal.
